Results as given in patent US11981660B2, “Neurite outgrowth promoters and uses thereof” (UNIVERSITY OF MIAMI, priority 2018, dated 2024).

Test system: hippocampal neurons
Experiment: Neurite outgrowth assay in cultured E18 rat hippocampal neurons (48 h, βIII-tubulin staining, Cellomics ArrayScan)
Format: cell-based
Conditions: Hippocampal neuron; for activity at 0.015625 µg/mL: 15.625 ng/mL compound; for activity at 0.015625 µg/mL / activity at 0.03125 µg/mL / activity at 0.0625 µg/mL / activity at 0.125 µg/mL / activity at 0.25 µg/mL / activity at 0.5 µg/mL: 48 hours, read-out: neurite growth length (% NTL); for activity at 0.03125 µg/mL: 31.25 ng/mL compound; for activity at 0.0625 µg/mL: 62.5 ng/mL compound; for activity at 0.125 µg/mL: 125 ng/mL compound; for activity at 0.25 µg/mL: 250 ng/mL compound; for activity at 0.5 µg/mL: 500 ng/mL compound; for EC200 / EC300: 48 h, estimated using linear interpolation; for EC200: 200% effective dose, read-out: ED200%; for EC300: 300% effective dose, read-out: ED300%
Procedure: Pre-coating culture plates: On the day before the experiment, 96-well plates were pre-coated by plating 50 μL of poly-D-lysine solution (PDL, 0.5 mg/mL) in each well. The next morning, the plates were washed four or five times with HBSS or PBS (150 μL/rinse), then left in buffer until cell plating
Preparing the cells: A timed pregnant rat carrying E18 embryos was euthanized using an IACUC approved method. In a laminar flow hood, the embryos were removed and placed in a petri dish containing Hank's Balanced Salt Solution (HBSS) with 20 mM HEPES, pH 7.3. Pup brains were dissected (see Meberg et al., Methods cell Biol 71:111-127 (2003)) and hippocampi were collected in 15 mL a conical tube containing Hibernate E with SM1 (2% v/v).
Dissociation media was prepared by combining 4.5 mL of Hibernate E (without SM1) with 0.5 mL of trypsin and 100 μl of DNAse solution. The medium over the hippocampi was carefully removed and replaced with dissociation solution, then incubated at 37° C. for 15-20 minutes, occasionally swirling the tube.
Using flame polished cotton plugged Pasteur pipettes, the dissociation media was removed, and then 5 mL of Hibernate E containing SM1 were added. The tube was swirled to thoroughly wash the tissue. The tissue was allowed to settle to the bottom of the tube, and the rinse solution was carefully removed. This step was repeated 5 times to dilute out trypsin and DNAse and remove any debris from lysed cells.
The final rinse media was removed from the tube and 1 pipette-full (1-2 mL) of Hibernate E with SM1 was added. Using the flame-polished Pasteur pipette (pre-wetted with rinse media), the tube was triturated until all cells had dissociated and no visible chunks of tissue remained. Fewer than ten triturations were typically performed. The volume was adjusted to 8-12 mL using Hibernate E containing SM1, the well was mixed and cell concentration was determined.
Plating: The cells were diluted in culture media (NbActiv4 Cell-culture media) to a final concentration of 10,000 cells/mL. The HBSS was aspirated from PDL coated plates, and 150 μL of cell solution was loaded in the middle 48 wells at 1500 cells per well. Water was loaded in the outer wells to decrease evaporation from edge wells. Cells were allowed to adhere for 2 hours in tissue culture incubator prior to treatment.
Treatment: Compounds were diluted to various concentrations to provide 6 dose response concentrations of 500 ng/mL, 250 ng/mL, 125 ng/mL, 62.5 ng/mL, 31.25 ng/mL, and 15.625 ng/mL. The plates were cultured for 48 hours, exposed to the compound at the various dose response concentrations.
Fixing the cultures: The culture medium was removed from the plates and immediately replaced with 100-200 μL of warm (37° C.) 4% paraformaldehyde (“PFA”) solution in phosphate-buffered saline (“PBS”). The cells were fixed for 15-20 minutes at room temperature, and then rinsed with PBS (200 μl/well×3).
Staining and imaging: The PBS was removed and replaced with 100 μL of blocking/permeabilization buffer (PBS, 0.2% fish gelatin, 0.03% Triton X-100, 0.02% NaN3), then incubated overnight at 4° C. To this was added 100 μL of primary antibody solution (mouse anti-Beta III tubulin in blocking buffer) and incubate overnight at 4° C. The wells were rinsed with PBS (200 μl×3), which was then removed and replaced with 100 μL of secondary antibody solution (Goat anti-mouse Alexa 488, 10 μg/ml Hoechst 33342, 0.2% fish gelatin, 0.02% azide, in PBS). The plate was shaken gently on a rotating shaker for 2 hours, then rinsed with PBS (200 μl×5).
The plate was imaged using a Cellomics ArrayScan VTI in 2 different channels for nuclear staining (Hoechst) and cell body/neurite staining (βIII-tubulin). Typically, nine fields per well were imaged with a 5× objective and automatically traced by the Neuronal Profiling Bioapplication. To get reproducible results, at least 200-300 valid neurons were measured per condition. […]

CC(C)C[C@@H]1CN(CCCC[C@H]2CNC(CCCc3ccccc3)=N2)C(=S)N1CCC1CCCCC1 [Compound A15, (R)-3-(2-cyclohexylethyl)-4-isobutyl-1-(4-((S)-2-(3-phenylpropyl)-4,5-dihydro-1H-imidazol-4-yl)butyl)imidazolidine-2-thione]
activity at 0.015625 µg/mL: 114% | activity at 0.03125 µg/mL: 135% | activity at 0.0625 µg/mL: 199% | activity at 0.125 µg/mL: 201% | activity at 0.25 µg/mL: 267% | activity at 0.5 µg/mL: 247%

CCC(C)C1=N[C@@H](CCCCN2C[C@@H](CC(C)C)N(CC3CCC(C)CC3)C2=S)CN1 (stereo partly drawn) [Compound A16, (4R)-1-(4-((4S)-2-(sec-butyl)-4,5-dihydro-1H-imidazol-4-yl)butyl)-4-isobutyl-3-((4-methylcyclohexyl)methyl)imidazolidine-2-thione]
activity at 0.015625 µg/mL: 131% | activity at 0.03125 µg/mL: 216% | activity at 0.0625 µg/mL: 254% | activity at 0.125 µg/mL: 268% | activity at 0.25 µg/mL: 236% | activity at 0.5 µg/mL: 264% | EC200: 0.01 µM | EC300: 0.053 µM

CC(C)C[C@@H]1CN(CCCC[C@H]2CNC(C3CCCC3)=N2)C(=S)N1CC1CCC(C)CC1 (stereo partly drawn) [Compound A17, (R)-1-(4-((S)-2-cyclopentyl-4,5-dihydro-1H-imidazol-4-yl)butyl)-4-isobutyl-3-((4-methylcyclohexyl)methyl)imidazolidine-2-thione]
activity at 0.015625 µg/mL: 170% | activity at 0.03125 µg/mL: 255% | activity at 0.0625 µg/mL: 254% | activity at 0.125 µg/mL: 312% | activity at 0.25 µg/mL: 238% | activity at 0.5 µg/mL: 263% | EC200: 0.004 µM | EC300: 0.025 µM

CC(C)C[C@@H]1CN(CCCC[C@H]2CNC(CCCc3ccccc3)=N2)C(=S)N1CC1CCC(C)CC1 (stereo partly drawn) [Compound A18, (R)-4-isobutyl-3-((4-methylcyclohexyl)methyl)-1-(4-((S)-2-(3-phenylpropyl)-4,5-dihydro-1H-imidazol-4-yl)butyl)imidazolidine-2-thione]
activity at 0.015625 µg/mL: 145% | activity at 0.03125 µg/mL: 197% | activity at 0.0625 µg/mL: 247% | activity at 0.125 µg/mL: 257% | activity at 0.25 µg/mL: 240% | activity at 0.5 µg/mL: 224% | EC200: 0.025 µM | EC300: 0.461 µM

CCC(C)C1=N[C@@H](CCCCN2C[C@@H](c3ccccc3)N(CCCC(C)C)C2=S)CN1 (stereo partly drawn) [Compound A19, (4R)-1-(4-((4S)-2-(sec-butyl)-4,5-dihydro-1H-imidazol-4-yl)butyl)-3-(4-methylpentyl)-4-phenylimidazolidine-2-thione]
activity at 0.015625 µg/mL: 121% | activity at 0.03125 µg/mL: 179% | activity at 0.0625 µg/mL: 253% | activity at 0.125 µg/mL: 264% | activity at 0.25 µg/mL: 266% | activity at 0.5 µg/mL: 276%

CC(C)CCCN1C(=S)N(CCCC[C@H]2CNC(C3CCCC3)=N2)C[C@H]1c1ccccc1 [Compound A20, (R)-1-(4-((S)-2-cyclopentyl-4,5-dihydro-1H-imidazol-4-yl)butyl)-3-(4-methylpentyl)-4-phenylimidazolidine-2-thione]
activity at 0.015625 µg/mL: 174% | activity at 0.03125 µg/mL: 234% | activity at 0.0625 µg/mL: 280% | activity at 0.125 µg/mL: 249% | activity at 0.25 µg/mL: 278% | activity at 0.5 µg/mL: 273%

CC(C)CCCN1C(=S)N(CCCC[C@H]2CNC(CCCc3ccccc3)=N2)C[C@H]1c1ccccc1 [Compound A21, (R)-3-(4-methylpentyl)-4-phenyl-1-(4-((S)-2-(3-phenylpropyl)-4,5-dihydro-1H-imidazol-4-yl)butyl)imidazolidine-2-thione]
activity at 0.015625 µg/mL: 114% | activity at 0.03125 µg/mL: 170% | activity at 0.0625 µg/mL: 172% | activity at 0.125 µg/mL: 259% | activity at 0.25 µg/mL: 254% | activity at 0.5 µg/mL: 225%

CCC(C)C1=N[C@@H](CCCCN2C[C@@H](c3ccccc3)N(CCC3CCCCC3)C2=S)CN1 (stereo partly drawn) [Compound A22, (4R)-1-(4-((4S)-2-(sec-butyl)-4,5-dihydro-1H-imidazol-4-yl)butyl)-3-(2-cyclohexylethyl)-4-phenylimidazolidine-2-thione]
activity at 0.015625 µg/mL: 139% | activity at 0.03125 µg/mL: 201% | activity at 0.0625 µg/mL: 257% | activity at 0.125 µg/mL: 246% | activity at 0.25 µg/mL: 222% | activity at 0.5 µg/mL: 228%

S=C1N(CCCC[C@H]2CNC(C3CCCC3)=N2)C[C@@H](c2ccccc2)N1CCC1CCCCC1 [Compound A23, (R)-3-(2-cyclohexylethyl)-1-(4-((S)-2-cyclopentyl-4,5-dihydro-1H-imidazol-4-yl)butyl)-4-phenylimidazolidine-2-thione]
activity at 0.015625 µg/mL: 182% | activity at 0.03125 µg/mL: 252% | activity at 0.0625 µg/mL: 260% | activity at 0.125 µg/mL: 262% | activity at 0.25 µg/mL: 232% | activity at 0.5 µg/mL: 186% | EC200: 0.007 µM | EC300: 0.091 µM

S=C1N(CCCC[C@H]2CNC(CCCc3ccccc3)=N2)C[C@@H](c2ccccc2)N1CCC1CCCCC1 [Compound A24, (R)-3-(2-cyclohexylethyl)-4-phenyl-1-(4-((S)-2-(3-phenylpropyl)-4,5-dihydro-1H-imidazol-4-yl)butyl)imidazolidine-2-thione]
activity at 0.015625 µg/mL: 144% | activity at 0.03125 µg/mL: 209% | activity at 0.0625 µg/mL: 252% | activity at 0.125 µg/mL: 254% | activity at 0.25 µg/mL: 222% | activity at 0.5 µg/mL: 184%

CCC(C)C1=N[C@@H](CCCCN2C[C@@H](c3ccccc3)N(CC3CCC(C)CC3)C2=S)CN1 (stereo partly drawn) [Compound A25, (4R)-1-(4-((4S)-2-(sec-butyl)-4,5-dihydro-1H-imidazol-4-yl)butyl)-3-((4-methylcyclohexyl)methyl)-4-phenylimidazolidine-2-thione]
activity at 0.015625 µg/mL: 190% | activity at 0.03125 µg/mL: 256% | activity at 0.0625 µg/mL: 297% | activity at 0.125 µg/mL: 302% | activity at 0.25 µg/mL: 256% | activity at 0.5 µg/mL: 280% | EC200: 0.005 µM | EC300: 0.054 µM

CC1CCC(CN2C(=S)N(CCCC[C@H]3CNC(C4CCCC4)=N3)C[C@H]2c2ccccc2)CC1 (stereo partly drawn) [Compound A26, (R)-1-(4-((S)-2-cyclopentyl-4,5-dihydro-1H-imidazol-4-yl)butyl)-3-((4-methylcyclohexyl)methyl)-4-phenylimidazolidine-2-thione]
activity at 0.015625 µg/mL: 251% | activity at 0.03125 µg/mL: 272% | activity at 0.0625 µg/mL: 306% | activity at 0.125 µg/mL: 286% | activity at 0.25 µg/mL: 271% | activity at 0.5 µg/mL: 230% | EC200: 0.002 µM | EC300: > 0.52 µM

CC1CCC(CN2C(=S)N(CCCC[C@H]3CNC(CCCc4ccccc4)=N3)C[C@H]2c2ccccc2)CC1 (stereo partly drawn) [Compound A27, (R)-3-((4-methylcyclohexyl)methyl)-4-phenyl-1-(4-((S)-2-(3-phenylpropyl)-4,5-dihydro-1H-imidazol-4-yl)butyl)imidazolidine-2-thione]
activity at 0.015625 µg/mL: 185% | activity at 0.03125 µg/mL: 174% | activity at 0.0625 µg/mL: 238% | activity at 0.125 µg/mL: 269% | activity at 0.25 µg/mL: 245% | activity at 0.5 µg/mL: 221% | EC200: 0.017 µM | EC300: > 0.471 µM
